Laboratory results as given in PMC9958325 (Nature Communications, 2023).
Several values for one entry are separate records, joined by “and”; a condition that tells them apart may be missing. Identical values can stand only once. Counter-ions that a name gives are not always drawn. Like-named read-outs stand apart in the source and are kept apart here. Marks after values point to notes of the source that are not given here. Peptide text beside a SMILES is read from it. * marks the point of attachment. Cbz = O=C(OCc1ccccc1)*; CH2F = FC*

Columns and labels:
SARS-CoV-2^WK-521 = test: microbe, parasite or virus in culture; assay type: cell-based; set-up: EC95, individual assays / EC95, Average: unit: µM
SARS-CoV-2 M^pro/3CL^pro = SARS-CoV-2 M^pro/3CL^pro (Severe acute respiratory syndrome coronavirus 2, UniProt P0DTD1); assay type: biochemical; set-up: IC95, individual assays / IC95, Average: unit: µM
[1] = Pharmacokinetic study in ICR mice; conditions: N = 2 to 3 male or female ICR mice; 5h, TKB125 i.v. 2 mg/kg
[2] = mouse, in vivo
HeLa-ACE2-TMPRSS2 cells = test: Intracellular concentrations of compounds (LC/MS), HeLa-ACE2-TMPRSS2 cells; conditions: for intracellular compound, /1x10^6: calculated value per cell count; for intracellular compound, calculated value /20uL: from AUC against pmol standard curve
VeroE6 cells = test: Intracellular concentrations of compounds (LC/MS), VeroE6 cells; conditions: Vero, calculated value per cell count
in vitro [3] = conditions: African green monkey, VeroE6 cells
in vitro [4] = conditions: human, HeLa-ACE2-TMPRSS2 cells
[5] = system: SARS-CoV-2^WK521 in HeLa-ACE2-TMPRSS2 cells; test: Antiviral assay, HeLa-ACE2-TMPRSS2 cells, WK521; assay type: cell-based
human cathepsin L = target: T1, human cathepsin L (Homo sapiens, UniProt P07711); test: Human cathepsin L inhibitor screening assay; assay type: biochemical; conditions: triplicate, listed as Cathepsin L inhibitor/FF-FMK
T1 construct: purchased abcam ab197012
T1 sequence (P07711 114-333): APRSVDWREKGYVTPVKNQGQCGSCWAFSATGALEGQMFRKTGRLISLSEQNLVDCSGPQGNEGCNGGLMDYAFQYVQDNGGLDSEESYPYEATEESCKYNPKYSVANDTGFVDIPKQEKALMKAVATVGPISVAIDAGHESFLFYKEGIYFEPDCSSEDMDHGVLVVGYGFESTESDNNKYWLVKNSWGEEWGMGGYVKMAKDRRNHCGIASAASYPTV

[6] = read-out: EC50, individual assays
[7] = read-out: SARS-CoV2 RNA VeroE6 cell-based assay EC50
[8] = FRET, mean ± 1 S.D., read-out: SARS-CoV2 M^pro enzyme assay IC50
[9] = source data, M^pro enzyme assay
[10] = source data, M^pro enzyme assay, read-out: IC50, Average
[11] = Hela ACE2 TMPRSS2, drug 10, duplicates
[12] = Hela ACE2 TMPRSS2, drug 50, duplicates
[13] = Hela ACE2 TMPRSS2, drug 100, duplicates
[14] = Severe acute respiratory syndrome coronavirus 2, Vero C1008, read-out: SARS-CoV2 RNA VeroE6 cell-based assay EC50
[15] = Severe acute respiratory syndrome coronavirus 2, SARS-CoV-2^WK521, read-out: EC50, HeLa-ACE2-TMPRSS2
[16] = Severe acute respiratory syndrome coronavirus 2, read-out: EC50, HeLa-AEC2-TMPRSS2, individual assays, source data
[17] = Severe acute respiratory syndrome coronavirus 2, source data, read-out: EC50, HeLa-AEC2-TMPRSS2, Average
[18] = read-out: EC50, HeLa-AEC2-TMPRSS2, individual assays, source data

For `COc1ccc(F)c2[nH]c(C(=O)N[C@@H](CC(C)C)C(=O)N[C@@H](C[C@@H]3CCNC3=O)C(=O)c3nc4ccccc4s3)cc12` [TKB125], the “EC95, Average” value (SARS-CoV-2^WK-521) was 8.3875, the “EC95, individual assays” value (SARS-CoV-2^WK-521) was 8.28 and 8.91 and 7.98 and 8.38 and the “SARS-CoV2 RNA VeroE6 cell-based assay EC95” value (SARS-CoV-2^WK-521) was 8.39 ± 0.39 µM. For the same compound, the EC50 (SARS-CoV-2^WK-521; read-out: EC50, Average) was 1820 nM, the EC50 (SARS-CoV-2^WK-521; [6]) was 1700 nM and 1510 nM and 3160 nM and 900 nM and the EC50 (SARS-CoV-2^WK-521; [7]) was 1820 ± 960 nM. For the same compound, the “SARS-CoV2 M^pro enzyme assay IC95” value (SARS-CoV-2 M^pro/3CL^pro; FRET, mean ± 1 S.D.) was 1.02 ± 0.40 µM, the IC50 (SARS-CoV-2 M^pro/3CL^pro; [8]) was 34 ± 6 nM and the “IC95, Average” value (SARS-CoV-2 M^pro/3CL^pro; [9]) was 1.022. The “IC95, individual assays” value (SARS-CoV-2 M^pro/3CL^pro; [9]) was 0.8844 and 1.476 and 0.7048, the IC50 (SARS-CoV-2 M^pro/3CL^pro; [10]) was 34 nM and the IC50 (SARS-CoV-2 M^pro/3CL^pro; source data, M^pro enzyme assay, read-out: IC50, individual assays) was 28.2 nM and 39.6 nM and 34.1 nM. For the same compound, the T1/2 [1] was 0.76 § h.
In the case of `COc1ccc(F)c2[nH]c(C(=O)N[C@@H](CC(C)C)C(=O)N[C@@H](C[C@@H]3CCNC3=O)C(=O)c3nc4c(F)cccc4s3)cc12` [TKB198], the “EC95, Average” value (SARS-CoV-2^WK-521) is reported as 0.834, the “EC95, individual assays” value (SARS-CoV-2^WK-521) is reported as 0.856 and 0.86 and 0.8 and 0.82 and the “Improvement of EC50 and EC95 values relative to TKB125” value (SARS-CoV-2^WK-521) is reported as “about 10 fold”. For the same compound, the “SARS-CoV2 RNA VeroE6 cell-based assay EC95” value (SARS-CoV-2^WK-521) was 0.83 ± 0.03 µM, the EC50 (SARS-CoV-2^WK-521; read-out: EC50, Average) was 272 nM and the EC50 (SARS-CoV-2^WK-521; [6]) was 130 nM and 300 nM and 400 nM and 260 nM. The EC50 (SARS-CoV-2^WK-521; [7]) was 270 ± 110 nM, the Cmax [2] was 85 ng/mL and the “Oral F” value ([2]; po) was 1.98§ %. For the same compound, the “SARS-CoV2 M^pro enzyme assay IC95” value (SARS-CoV-2 M^pro/3CL^pro; FRET, mean ± 1 S.D.) was 0.75 ± 0.27 µM, the IC50 (SARS-CoV-2 M^pro/3CL^pro; [8]) was 23 ± 13 nM and the “IC95, Average” value (SARS-CoV-2 M^pro/3CL^pro; [9]) was 0.7533. For the same compound, the “IC95, individual assays” value (SARS-CoV-2 M^pro/3CL^pro; source data, M^pro enzyme assay, listed as TKB0198) was 1.0700 and 0.6000 and 0.5900, the IC50 (SARS-CoV-2 M^pro/3CL^pro; source data, M^pro enzyme assay, listed as TKB0198, read-out: IC50, individual assays) was 36 nM and 10.1 nM and the IC50 (SARS-CoV-2 M^pro/3CL^pro; [10]) was 23 nM. The T1/2 [1] was 0.83 § h.
For `COc1cccc2[nH]c(C(=O)N[C@@H](CC(C)C)C(=O)N[C@@H](C[C@@H]3CCNC3=O)C(=O)c3nc4ccccc4s3)cc12` [Compound 5h, reference compound], the “EC95, Average” value (SARS-CoV-2^WK-521) was 9.4675, the “EC95, individual assays” value (SARS-CoV-2^WK-521) was 9.47 and 9.68 and 9.72 and 9 and the “SARS-CoV2 RNA VeroE6 cell-based assay EC95” value (SARS-CoV-2^WK-521) was 9.47 ± 0.33 µM. For the same compound, the EC50 (SARS-CoV-2^WK-521; [6]) was 2700 nM and 3200 nM and 2000 nM and 2500 nM, the EC50 (SARS-CoV-2^WK-521; [7]) was 2600 ± 500 nM and the T1/2 [1] was 0.27§ h.
For `CC(C)(C)C(NC(=O)C(F)(F)F)C(=O)N1CC2C(C1C(=O)NC(CC1CCNC1=O)C(=O)c1nc3c(F)cccc3s1)C2(C)C` (stereo not shown) [TKB0245A], the “intracellular compound, pmol(total)” value (HeLa-ACE2-TMPRSS2 cells; [11]) was 0.636 pmol and 0.5701 pmol, the “intracellular compound, /1x10^6” value (HeLa-ACE2-TMPRSS2 cells; [11]) was 0.2544 /1x10^6 and 0.228 /1x10^6 and the “intracellular compound, calculated value /20uL” value (HeLa-ACE2-TMPRSS2 cells; [11]) was 0.59 /20uL and 0.50 /20uL. For the same compound, the “intracellular compound, pmol(total)” value (HeLa-ACE2-TMPRSS2 cells; [12]) was 4.585 pmol and 3.749 pmol, the “intracellular compound, /1x10^6” value (HeLa-ACE2-TMPRSS2 cells; [12]) was 1.834 /1x10^6 and 1.4997 /1x10^6 and the “intracellular compound, calculated value /20uL” value (HeLa-ACE2-TMPRSS2 cells; [12]) was 4.77 /20uL and 3.30 /20uL. For the same compound, the “intracellular compound, pmol(total)” value (HeLa-ACE2-TMPRSS2 cells; [13]) was 8.312 pmol and 9.388 pmol, the “intracellular compound, /1x10^6” value (HeLa-ACE2-TMPRSS2 cells; [13]) was 3.325 /1x10^6 and 3.755 /1x10^6 and the “intracellular compound, calculated value /20uL” value (HeLa-ACE2-TMPRSS2 cells; [13]) was 6.65 /20uL and 9.39 /20uL. The “intracellular compound, /1x10^6” value (VeroE6 cells; drug 10, duplicates) was 0.09213 /1x10^6 and 0.09745 /1x10^6 and the “intracellular compound, /1x10^6” value (VeroE6 cells; drug 100, duplicates) was 0.9321 /1x10^6 and 0.7861 /1x10^6.
For `CC(C)C(=O)OC[C@H]1O[C@@H](n2ccc(NO)nc2=O)[C@H](O)[C@@H]1O` [Molnupiravir], the EC50 (SARS-CoV-2^WK-521; Severe acute respiratory syndrome coronavirus 2, Vero C1008, read-out: EC50, individual assays) was 270 nM, the EC50 (SARS-CoV-2^WK-521; [14]) was 350 ± 60 nM and the EC50 (SARS-CoV-2^WK-521; [6]) was 330 nM and 380 nM and 420 nM. For the same compound, the CC50 at 3 days (in vitro [3]) was > 100 µM, the CC50 at 3 days (in vitro [4]) was > 100 µM and the EC50 [5, 15] was 320 ± 70 nM. The EC50 [5, 16] was 270 nM, the EC50 [5, 17] was 323 nM and the EC50 [5, 18] was 300 nM and 400 nM.
In the case of `O=C(NC(Cc1ccccc1)C(=O)NC(Cc1ccccc1)C(=O)CF)OCc1ccccc1` (stereo not drawn) [FF-FMK, reference compound] (Cbz-Phe-Phe-CH2F; configuration not given here), the “% inhibition against human Cathepsin” value (human cathepsin L; 0.00106 µM) is reported as 39.8315% and 40.7898% and 42.7898%, the “% inhibition against human Cathepsin” value (human cathepsin L; 0.0053 µM) is reported as 58.2277% and 58.5989% and 59.5989% and the “% inhibition against human Cathepsin” value (human cathepsin L; 0.0266 µM) is reported as 77.0946% and 80.3037% and 81.3037%. For the same compound, the “% inhibition against human Cathepsin” value (human cathepsin L; 0.6 µM) was 98.8112% and 98.8499%, the “% inhibition against human Cathepsin” value (human cathepsin L; 3.3 µM) was 99.7789% and 99.782% and the “% inhibition against human Cathepsin” value (human cathepsin L; 16.6 µM) was 99.9553% and 99.0234% and 100.023%.
For `Cn1cnc(Cn2c(=O)[nH]/c(=N\c3cc4cn(C)nc4cc3Cl)n(Cc3cc(F)c(F)cc3F)c2=O)n1` [Ensitrelvir fumarate], the EC50 (SARS-CoV-2^WK-521; Severe acute respiratory syndrome coronavirus 2, Vero C1008, read-out: EC50, Average) was 106 nM, the EC50 (SARS-CoV-2^WK-521; [14]) was 110 ± 50 nM and the EC50 (SARS-CoV-2^WK-521; [6]) was 45 nM and 127 nM and 156 nM and 98 nM. For the same compound, the CC50 at 3 days (in vitro [3]) was > 100 µM, the CC50 at 3 days (in vitro [4]) was > 100 µM and the EC50 [5, 15] was 200 ± 30 nM. The EC50 [5, 16] was 211 nM, the EC50 [5, 17] was 204 nM and the EC50 [5, 18] was 230 nM and 170 nM.
